# Test results as given in patent publication US9605004B2, “Chemical compounds” (SYNGENTA LIMITED, priority 2013, dated 2017).
# Assays:
# [1] = tested on: a variety of test species; test: Pre-emergence herbicidal activity (Example 8a, Table 2); assay type: in vivo; parameters: key: 0 = no damage to plant, 5 = total damage to plant; settings: application pre-emergence, rate 1000 g/ha, evaluated after 13 days
# Summary of the method: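 Compounds are applied pre-emergence as an aqueous spray, formulated in 50:50 acetone/water containing 0.5% Tween 20, to pots sown one day earlier. Plants grow in a controlled glasshouse and are scored 13 days later for damage from 0 to 5.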
# [2] = tested on: a variety of test species; test: Post-emergence herbicidal activity (Example 8b, Table 3); assay type: in vivo; settings: application post-emergence, rate 1000 g/ha, evaluated after 13 days, scale 0-5; for Herbicidal damage score, ABUTH: Abutilon theophrasti; for Herbicidal damage score, ALOMY: Alopecurus myosuroides; for Herbicidal damage score, AMARE: Amaranthus retroflexus; for Herbicidal damage score, ECHCG: Echinochloa crus-galli; for Herbicidal damage score, SETFA: Setaria faberi; for Herbicidal damage score, ZEAMX: Zea mays
# Summary of the method: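 Pot-grown seedlings sprayed 8 days after sowing with active ingredient in acetone/water (50:50) plus 0.5% Tween 20. Glasshouse at 24/16 °C day/night, 14 h light, 65% humidity, watered twice daily. Damage scored after 13 days on a 0–5 scale (5 = total damage, 0 = none).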
compound,measurement,setting,value
CC1=C(Cl)C(=O)N(c2nn(C)c(C(C)(C)C)c2C#N)C1O (stereo not drawn) [Compound D2],"Pre-emergence herbicidal activity, damage score ABUTH",[1],5
same,"Pre-emergence herbicidal activity, damage score ALOMY",[1],4
same,"Pre-emergence herbicidal activity, damage score AMARE",[1],5
same,"Pre-emergence herbicidal activity, damage score ECHCG",[1],4
same,"Pre-emergence herbicidal activity, damage score SETFA",[1],4
same,"Pre-emergence herbicidal activity, damage score ZEAMX",[1],2
same,"Herbicidal damage score, ABUTH",[2],5
same,"Herbicidal damage score, ALOMY",[2],4
same,"Herbicidal damage score, AMARE",[2],5
same,"Herbicidal damage score, ECHCG",[2],5
same,"Herbicidal damage score, SETFA",[2],5
same,"Herbicidal damage score, ZEAMX",[2],3
CC1=C(Cl)C(=O)N(c2nn(C)c(C(C)(C)C)c2Cl)C1O (stereo not drawn) [Compound D3],"Pre-emergence herbicidal activity, damage score ABUTH",[1],5
same,"Pre-emergence herbicidal activity, damage score ALOMY",[1],3
same,"Pre-emergence herbicidal activity, damage score AMARE",[1],5
same,"Pre-emergence herbicidal activity, damage score ECHCG",[1],5
same,"Pre-emergence herbicidal activity, damage score SETFA",[1],5
same,"Pre-emergence herbicidal activity, damage score ZEAMX",[1],4
same,"Herbicidal damage score, ABUTH",[2],5
same,"Herbicidal damage score, ALOMY",[2],4
same,"Herbicidal damage score, AMARE",[2],4
same,"Herbicidal damage score, ECHCG",[2],5
same,"Herbicidal damage score, SETFA",[2],5
same,"Herbicidal damage score, ZEAMX",[2],4
CC1=C(Cl)C(=O)N(c2nn(C)c(C(C)(C)CCl)c2Cl)C1O (stereo not drawn) [Compound D4],"Pre-emergence herbicidal activity, damage score ABUTH",[1],5
same,"Pre-emergence herbicidal activity, damage score ALOMY",[1],3
same,"Pre-emergence herbicidal activity, damage score AMARE",[1],2
same,"Pre-emergence herbicidal activity, damage score ECHCG",[1],4
same,"Pre-emergence herbicidal activity, damage score SETFA",[1],2
same,"Pre-emergence herbicidal activity, damage score ZEAMX",[1],2
same,"Herbicidal damage score, ABUTH",[2],5
same,"Herbicidal damage score, ALOMY",[2],4
same,"Herbicidal damage score, AMARE",[2],4
same,"Herbicidal damage score, ECHCG",[2],5
same,"Herbicidal damage score, SETFA",[2],4
same,"Herbicidal damage score, ZEAMX",[2],0
CSc1c(C#N)c(N2C(=O)C(Cl)=C(C)C2O)nn1C (stereo not drawn) [Compound D5],"Pre-emergence herbicidal activity, damage score ABUTH",[1],0
same,"Pre-emergence herbicidal activity, damage score ALOMY",[1],0
same,"Pre-emergence herbicidal activity, damage score AMARE",[1],0
same,"Pre-emergence herbicidal activity, damage score ECHCG",[1],0
same,"Pre-emergence herbicidal activity, damage score SETFA",[1],0
same,"Pre-emergence herbicidal activity, damage score ZEAMX",[1],0
same,"Herbicidal damage score, ABUTH",[2],0
same,"Herbicidal damage score, ALOMY",[2],0
same,"Herbicidal damage score, AMARE",[2],0
same,"Herbicidal damage score, ECHCG",[2],0
same,"Herbicidal damage score, SETFA",[2],0
same,"Herbicidal damage score, ZEAMX",[2],0
CCn1nc(N2C(=O)C(Cl)=C(C)C2O)c2c1C(C)(C)CC2 (stereo not drawn) [Compound E1],"Pre-emergence herbicidal activity, damage score ABUTH",[1],5
same,"Pre-emergence herbicidal activity, damage score ALOMY",[1],4
same,"Pre-emergence herbicidal activity, damage score AMARE",[1],5
same,"Pre-emergence herbicidal activity, damage score ECHCG",[1],5
same,"Pre-emergence herbicidal activity, damage score SETFA",[1],4
same,"Pre-emergence herbicidal activity, damage score ZEAMX",[1],2
same,"Herbicidal damage score, ABUTH",[2],5
same,"Herbicidal damage score, ALOMY",[2],4
same,"Herbicidal damage score, AMARE",[2],5
same,"Herbicidal damage score, ECHCG",[2],5
same,"Herbicidal damage score, SETFA",[2],5
same,"Herbicidal damage score, ZEAMX",[2],4
CCn1nc(N2C(=O)C(Cl)=C(C)C2O)c2c1C(C)(C)CC2 (stereo not drawn) [Compound E2],"Pre-emergence herbicidal activity, damage score ABUTH",[1],5
same,"Pre-emergence herbicidal activity, damage score ALOMY",[1],3
same,"Pre-emergence herbicidal activity, damage score AMARE",[1],5
same,"Pre-emergence herbicidal activity, damage score ECHCG",[1],5
same,"Pre-emergence herbicidal activity, damage score SETFA",[1],5
same,"Pre-emergence herbicidal activity, damage score ZEAMX",[1],3
same,"Herbicidal damage score, ABUTH",[2],5
same,"Herbicidal damage score, ALOMY",[2],5
same,"Herbicidal damage score, AMARE",[2],5
same,"Herbicidal damage score, ECHCG",[2],5
same,"Herbicidal damage score, SETFA",[2],5
same,"Herbicidal damage score, ZEAMX",[2],5
CC1=C(Cl)C(=O)N(c2nn(C)c3c2CCCCC3(C)C)C1O (stereo not drawn) [Compound E3],"Pre-emergence herbicidal activity, damage score ABUTH",[1],4
same,"Pre-emergence herbicidal activity, damage score ALOMY",[1],2
same,"Pre-emergence herbicidal activity, damage score AMARE",[1],5
same,"Pre-emergence herbicidal activity, damage score ECHCG",[1],4
same,"Pre-emergence herbicidal activity, damage score SETFA",[1],2
same,"Pre-emergence herbicidal activity, damage score ZEAMX",[1],1
same,"Herbicidal damage score, ABUTH",[2],4
same,"Herbicidal damage score, ALOMY",[2],4
same,"Herbicidal damage score, AMARE",[2],5
same,"Herbicidal damage score, ECHCG",[2],5
same,"Herbicidal damage score, SETFA",[2],4
same,"Herbicidal damage score, ZEAMX",[2],2
CC1=C(Cl)C(=O)N(c2nn(C)c3c2C2CCC3C2)C1O (stereo not drawn) [Compound E4],"Pre-emergence herbicidal activity, damage score ABUTH",[1],5
same,"Pre-emergence herbicidal activity, damage score ALOMY",[1],3
same,"Pre-emergence herbicidal activity, damage score AMARE",[1],5
same,"Pre-emergence herbicidal activity, damage score ECHCG",[1],4
same,"Pre-emergence herbicidal activity, damage score SETFA",[1],5
same,"Pre-emergence herbicidal activity, damage score ZEAMX",[1],2
same,"Herbicidal damage score, ABUTH",[2],5
same,"Herbicidal damage score, ALOMY",[2],4
same,"Herbicidal damage score, AMARE",[2],5
same,"Herbicidal damage score, ECHCG",[2],5
same,"Herbicidal damage score, SETFA",[2],5
same,"Herbicidal damage score, ZEAMX",[2],4
CC1=C(Cl)C(=O)N(c2nn(C)c3c2CCCC3(C)C)C1O (stereo not drawn) [Compound E5],"Pre-emergence herbicidal activity, damage score ABUTH",[1],5
same,"Pre-emergence herbicidal activity, damage score ALOMY",[1],3
same,"Pre-emergence herbicidal activity, damage score AMARE",[1],5
same,"Pre-emergence herbicidal activity, damage score ECHCG",[1],5
same,"Pre-emergence herbicidal activity, damage score SETFA",[1],5
same,"Pre-emergence herbicidal activity, damage score ZEAMX",[1],2
same,"Herbicidal damage score, ABUTH",[2],5
same,"Herbicidal damage score, ALOMY",[2],5
same,"Herbicidal damage score, AMARE",[2],5
same,"Herbicidal damage score, ECHCG",[2],5
same,"Herbicidal damage score, SETFA",[2],5
same,"Herbicidal damage score, ZEAMX",[2],4
CC1=C(Cl)C(=O)N(c2cc(C(C)(C)C)n(C)n2)C1OC(=O)OCC(C)C (stereo not drawn) [Compound F1],"Pre-emergence herbicidal activity, damage score ABUTH",[1],5
same,"Pre-emergence herbicidal activity, damage score ALOMY",[1],3
same,"Pre-emergence herbicidal activity, damage score AMARE",[1],5
same,"Pre-emergence herbicidal activity, damage score ECHCG",[1],5
same,"Pre-emergence herbicidal activity, damage score SETFA",[1],4
same,"Pre-emergence herbicidal activity, damage score ZEAMX",[1],2
same,"Herbicidal damage score, ABUTH",[2],5
same,"Herbicidal damage score, ALOMY",[2],5
same,"Herbicidal damage score, AMARE",[2],5
same,"Herbicidal damage score, ECHCG",[2],5
same,"Herbicidal damage score, SETFA",[2],5
same,"Herbicidal damage score, ZEAMX",[2],5
CC1=C(Cl)C(=O)N(c2cc(C(C)(C)C)n(C)n2)C1OC(=O)Oc1ccccc1 (stereo not drawn) [Compound F2],"Pre-emergence herbicidal activity, damage score ABUTH",[1],5
same,"Pre-emergence herbicidal activity, damage score ALOMY",[1],3
same,"Pre-emergence herbicidal activity, damage score AMARE",[1],5
same,"Pre-emergence herbicidal activity, damage score ECHCG",[1],5
same,"Pre-emergence herbicidal activity, damage score SETFA",[1],4
same,"Pre-emergence herbicidal activity, damage score ZEAMX",[1],3
same,"Herbicidal damage score, ABUTH",[2],5
same,"Herbicidal damage score, ALOMY",[2],5
same,"Herbicidal damage score, AMARE",[2],5
same,"Herbicidal damage score, ECHCG",[2],5
same,"Herbicidal damage score, SETFA",[2],5
same,"Herbicidal damage score, ZEAMX",[2],5
CC1=C(Cl)C(=O)N(c2cc(C(C)(C)C)n(C)n2)C1OC(=O)Oc1ccccc1 (stereo not drawn) [Compound F3],"Pre-emergence herbicidal activity, damage score ABUTH",[1],5
same,"Pre-emergence herbicidal activity, damage score ALOMY",[1],3
same,"Pre-emergence herbicidal activity, damage score AMARE",[1],5
same,"Pre-emergence herbicidal activity, damage score ECHCG",[1],5
same,"Pre-emergence herbicidal activity, damage score SETFA",[1],4
same,"Pre-emergence herbicidal activity, damage score ZEAMX",[1],3
same,"Herbicidal damage score, ABUTH",[2],5
same,"Herbicidal damage score, ALOMY",[2],5
same,"Herbicidal damage score, AMARE",[2],5
same,"Herbicidal damage score, ECHCG",[2],5
same,"Herbicidal damage score, SETFA",[2],5
same,"Herbicidal damage score, ZEAMX",[2],5
